Experimental data from EP0117260A1, “4-Aminobutyric acid derivatives, a process for the preparation thereof and a pharmaceutical composition containing said derivatives” (priority 1983, dated 1984).

How the values were obtained:
[1] = Maximum tolerance (death observed 48 hours after administration); conditions: mouse, in vivo; mice; dose just smaller than the dose inducing death, observed 48 hours after the administration
[2] = Level of hopanthenic acid in the cerebrum after oral administration (GC-MS); assay type: in vivo, SD-male rats; conditions: rat, 389.4 umol/kg, 389.4 µmole/kg, rats, n=4, read-out: Level of hopanthenic acid in the cerebrum (average ± S.D.)
Protocol: SD-male rats, weighing about 200 g, 7 weeks age, having been fasted overnight (one group: 4 rats) were used. To each rat was orally administered a suspension (2 ml) of a test compound in a 0.5 % carboxymethyl cellulose solution with a stomach sonde (dose of test compound: 389.4 #mole/kg, corresponding to 100 mg/kg of calcium hopanthenate). Two or three hours after the administration, the cerebrum was taken out and washed with physiological saline solution. To the cerebrum was added 9 times volume of water, and the mixture was homogenated with a homogenizer for one minute under ice-cooling and then centrifuged at 10,000 r.p.m. at 4°C for one hour. Concentration of hopanthenic acid in the supernatant (1 ml, corresponding to 0.1 g of the cerebrum) was measured by gas chromatography and mass spectrometry. The test compounds were the same as used in Experiment 1.

[3] = Level of hopanthenic acid in blood plasma after oral administration (GC-MS); assay type: in vivo, SD-male rats; conditions: rat, 389.4 umol/kg, 389.4 µmole/kg, rats, n=4, read-out: Level of hopanthenic acid in the blood plasma (average ± S.D.)
Protocol: SD-male rats, weighing about 200 g, 7 weeks age, having been fasted overnight (one group: 4 rats) were used. To each rat was orally administered a suspension (2 ml) of a test compound in a 0.5 % carboxymethyl cellulose solution with a stomach sonde (dose of test compound: […], corresponding to 100 mg/kg of calcium hopanthenate).
One or two hours after the aministration, the rats were killed by cutting whole carotid arteries, and the blood was collected. The blood of each rat was centrifuged (2,800 r.p.m., 15 minutes) to separate blood plasma. Concentration of hopanthenic acid in the blood plasma (0.1 ml) was measured by gas chromatography and mass spectrometry.

[4] = Two hours after the administration

SMILES | MTD at 48 h [1] [mg/kg] | concentration at 3 h ([2]; Three hours after the administration) [ng/g] | concentration at 2 h [2, 4] [ng/g] | concentration at 1 h ([3]; One hour after the administration) [µg/mL] | concentration at 2 h [3, 4] [µg/mL]
CC(C)C(=O)OCC(C)(C)[C@@H](O)C(=O)NCCCC(=O)O | > 2000 | – | – | – | –
CC(C)CC(=O)OCC(C)(C)[C@@H](O)C(=O)NCCCC(=O)O [Compound No. 2, D-4-[N-(4-Isovaleryloxy-3,3-dimethyl-2-hydroxy-n-butyryl)-amino]-n-butyric acid] | > 2000 | – | – | – | –
CC(C)(CO)[C@@H](O)C(=O)NCCCC(=O)O [Control, Calcium D-4-[N-(2,4-dihydroxy-3,3-dimethyl-n-butyryl)amino]-n-butyrate] | – | 370 ± 70 | 700 ± 110 | 19.4 ± 1.9 | 14.2 ± 1.6
